What was measured:
[1] = tested on: hPSC-derived endothelial progenitors (Passage 1 ECs); assay: Immunocytochemistry of Passage 1 ECs treated with Wnt ligands, CHIR or conditioned media; type: cell-based, human
Procedure: Collagen IV (Sigma-Aldrich) was dissolved in 0.5 mg/mL acetic acid to a final concentration of 1 mg/mL. Collagen IV-coated plates were prepared by diluting a volume of this stock solution 1:100 in water, adding the resulting solution to tissue culture plates, or #1.5 glass bottom plates (Cellvis, Sunnyvale, CA) for cells intended for confocal imaging (1 mL per well for 6-well plates, 0.5 mL per well for 12-well plates, 0.25 mL per well for 24-well plates), and incubating the plates for 1 h at RT. Collagen IV coating solution was removed and EPCs obtained as described above were suspended in hECSR medium and plated at approximately 3×10^4 cells/cm^2. In some experiments, cells were suspended in NR-CM or Astro-CM. In some experiments, ligands and small molecules were added to hECSR medium: CHIR 99021 (Tocris) was used at 4 μM except where indicated; DMSO (Sigma-Aldrich) was used as a vehicle control for CHIR; Wnt3a (R&D Systems) was used at 20 ng/mL; Wnt7a (Peprotech, Rocky Hill, NJ) was used at 50 ng/mL; Wnt7b (Abnova, Tapei, Taiwan) was used at 50 ng/mL; R-spondin 1 (Rspo1; Peprotech) was used at 50 ng/mL; doxycycline was used at 1, 2, or 4 μg/mL. The hECSR medium or CM, including any ligands or small molecules, was replaced every other day until confluent (typically 6 days). We denote this time point “Passage 1.”
Immunocytochemistry was performed in 24-well plates. Cells were washed once with 500 μL DPBS and fixed with 500 μL cold (−20° C.) methanol for 5 min, except cells intended for calponin/SM22a and CD31/Ki67 detection, which were fixed with 500 μL of 4% paraformaldehyde for 15 min. Cells were washed three times with 500 μL DPBS and blocked in 150 μL DPBS supplemented with 10% goat serum (Life Technologies) for 1 h at room temperature, except cells intended for calponin/SM22α detection, which were blocked and permeabilized in DPBS supplemented with 3% BSA and 0.1% Triton X-100, or cells intended for CD31/Ki67 detection, which were blocked and permeabilized in DPBS supplemented with 5% non-fat dry milk and 0.4% Triton X-100. Primary antibodies diluted in 150 μL of the above blocking solutions (see Table 6 for antibody information) were added to cells and incubated overnight at 4° C. on a rocking platform. Cells were washed three times with 500 μL DPBS. Secondary antibodies diluted in 150 μL of the above blocking solutions (see Table 6 for antibody information) were added to cells and incubated for 1 h at room temperature on a rocking platform, protected from light. Cells were washed three times with 500 μL DPBS, followed by 5 min incubation with 500 μL DPBS plus 4 μM Hoechst 33342 (Life Technologies). Images were acquired using an Eclipse Ti2-E epifluorescence microscope (Nikon, Tokyo, Japan) with a 20× objective or an A1R-Si+ confocal microscope (Nikon) with a 100× oil objective. Confocal images were acquired with 1 μm slice spacing.
(§1) Images were analyzed using FIJI (ImageJ) software. For epifluorescence images, 5 fields (20×) were analyzed per well, with 3-4 wells per treatment condition. For quantification of cell number, EC colonies were manually outlined, and the Analyze Particles function was used to estimate the number of nuclei within the EC colonies. Nuclei outside the EC colonies were manually counted. EC purity (% EC) was calculated as the number of nuclei within EC colonies relative to total nuclei. To estimate % GLUT-1^+ ECs, cells within the EC colonies with membrane-localized GLUT-1 immunoreactivity (e.g., arrowheads in FIG. 24B) were manually counted. To estimate % Ki67^+ ECs, cells within the EC colonies with at least one nuclear-localized Ki67 punctum were manually counted. For quantification of fluorescence intensity in epifluorescence images, EC colonies were manually outlined, and the Measure function was used to obtain the mean fluorescence intensity for each image channel (fluorophore). A cell-free area of the plate was similarly quantified for background subtraction. […]

Passage 1 ECs (WTC11) = assay: EC proliferation (Ki67 immunocytochemistry, cell cycle analysis); type: cell-based, human; details: CHIR vs DMSO
Procedure: as §1, with “subtraction. Following background subtraction, the mean fluorescence intensity of each protein of interest was normalized to the mean fluorescence intensity of Hoechst to correct for effects of cell density. For confocal images, 3-4 fields (100×) containing only VE-cadherin^+ ECs were analyzed per well, with 4 wells per treatment condition.” for “subtraction.”

[2] = 4 μM CHIR vs control, Passage 1 ECs

Cc1c[nH]c(-c2cnc(NCCNc3ccc(C#N)cn3)nc2-c2ccc(Cl)cc2Cl)n1 [CHIR, CHIR 99021]
caveolin-1 expression vs DMSO ([1]; 2 μM CHIR): did not lead to increased caveolin-1 expression | claudin-5 or GLUT-1 expression vs control ([1]; 2 μM CHIR): did not elevate claudin-5 or GLUT-1 expression | EC number and EC purity ([1]; 2 μM CHIR vs 4 μM CHIR): less effective in increasing EC number and EC purity than 4 μM CHIR | increase in GLUT-1 abundance [1, 2]: ~30 fold | increase in average claudin-5 abundance [1, 2]: approximately 1.5 fold | increase in caveolin-1 [1, 2]: 4 fold | ECs with induced GLUT-1 expression ([1]; 4 μM CHIR, Passage 1 ECs, IMR90-4): approximately 90% | EC number, EC purity, claudin-5 expression ([1]; 6 μM CHIR vs 4 μM): did not improve EC number, EC purity, or claudin-5 expression | GLUT-1 abundance ([1]; 6 μM CHIR vs 4 μM): further increased GLUT-1 abundance | caveolin-1 abundance ([1]; 6 μM CHIR vs 4 μM): further increased caveolin-1 abundance | increases in GLUT-1 abundance ([1]; CHIR treatment initiated immediately after MACS): 10- to 40 fold | EC purity (proportion of ECs compared to SMLCs) ([1]; Passage 1 cultures, 6 days treatment): increasing EC purity to a level similar to that achieved with Wnt7a | EC purity, EC number, caveolin-1 and GLUT-1 expression ([1]; additional hPSC line (WTC11)): conserved | claudin-5 upregulation ([1]; additional hPSC line (WTC11)): not apparent | reduction of PLVAP abundance ([1]; confocal microscopy, Passage 1 ECs, CHIR vs DMSO): approximately 20% | EC proliferation (Passage 1 ECs (WTC11)): increased EC proliferation
